From patent US10369124B2, “Dendrimer compositions and their use in treatment of diseases of the eye” (The Johns Hopkins University, priority 2014, dated 2019)

Assays:
[1] = Quantitative biodistribution of D-Cy5 in vital organs by fluorescence spectroscopy (FLS); type: in vivo, BALB/c mice; conditions: IV
Method: Biodistribution analysis of D-Cy5 in vital organs. Twelve BALB-C mice weighing ˜25 gr BW were used for this study. Four animals were sacrificed at each time point: 24 hours, 72 hours and 21 days. Each mouse was injected via femoral vein with 600 μg of D-Cy5 in 100 μL of sterile PBS. At respective time point, the animals were euthanized and vital organs (heart, lungs, spleen, kidney, liver and eyes) were harvested immediately and organ wet weights were noted. Organs were snap frozen on dry ice, and stored at −80° C. until analysis. Upon analysis, the tissues were thawed and approximately 100-150 mg of tissue were measured and homogenized with 1 ml of MeOH in low DNA binding tubes (Eppendorf AG, Hamburg, Germany) using stainless steel bead and tissue homogenizer (Tissuelyzer LT, QIAGEN, Hilden, Germany) resulting in a pulpy tissue suspension. The suspension was sonicated for 30 minutes and appropriate volumes containing 100 mg of tissue were placed in different low DNA binding vials and diluted with methanol to 1 ml so that the same amount of tissue and same volume was analyzed for each sample. The samples were centrifuged at 10,000 rpm for 10 minutes at 4° C. resulting in supernatants, which were subjected to fluorescence spectroscopy (FLS).
Quantitative biodistribution of D-Cy5 in vital organs. Quantitative biodistribution in vital organs (liver, kidney, spleen, heart, lungs and serum) and kinetics of D-Cy5 injected intravenously into animals with I/R injury was assessed using FLS (fluorescence spectroscopy) method. For analysis, weight of tissues was measured before being homogenized and D-Cy5 was extracted using methanol as described previously by Lesniak et al. (Molecular pharmaceutics 10 (12), 4560-4571). The D-Cy conjugates were intact stable in human plasma at 37° C. and in vivo, and also the applied methanol extraction protocol yielded best recovery of 96%. The methanol extracts were subjected to fluorescence measurements for emission values using fluorescence spectrophotometer. […]

[2] = test system: Iba-1+ microglia/macrophages in retina; assay: Retinal biodistribution of D-Cy5 by immunohistochemistry and confocal microscopy in ischemia/reperfusion (I/R) injury; conditions: mouse, in vivo
Method: Animals & Ischemia reperfusion (I/R) injury. All procedures involving the animals conformed to the ARVO Statement for the Use of Animals in Ophthalmic and Vision Research. BALB/c albino mice, each weighing ˜25 grams, housed in Wilmer animal facility at Johns Hopkins were used for transport as well as I/R studies. All surgeries were performed under ketamine (100 mg/Kg) and Xylazine (10 mg/kg) peritoneal anaesthesia. Six mice were used in each group at each time point. I/R injury was performed in the left eye by following the procedure described elsewhere. Briefly, the anterior chamber was cannulated with 30 gauze needle attached to a line infusing saline. The saline system is mounted on to a custom-made saline reservoir and elevated to certain height (calibrated to 90 mm Hg). The IOP was elevated to 90 mm Hg for 90 minutes and I/R injury and shut off of choroidal circulation was evidenced by blanching of the posterior segment via fundus examination through the operating microscope. After ischemia, the needle was immediately withdrawn for immediate blood reperfusion. The right eye had no I/R injury and served as control.
Dendrimer injection and Animal sacrifice. Six days post I/R injury, BALB/c mice were injected with dendrimer either intravitreally or intravenously. […]
Immunohistochemistry and confocal microscopy. […] Sections were analysed on a Zeiss 510 confocal microscope. […]

[3] = test system: IL-1β, IL-6, MCP-1, TNFα, IL-10; assay: Retina cytokine levels by ELISA in CNV rat model; type: in vivo, SD rats; conditions: n=8/group
Method: (§1) CNV rat model. Male SD rats of ˜300 grams each were chosen for this study. Lipid 3(S)-hydroperoxy-9Z,11E-octadecadienoic acid (HpODE) (Cayman Chemicals, Michigan, USA.) was dissolved in cold borate buffer at a concentration of 500 μg/33 μL. Two μL of lipid was injected sub-retinal on day 1 forming a bleb in retina.
The effect of D-NAC on retinal inflammation was assessed in a blinded manner, by measuring proinflammatory (IL-1β, IL-6, MCP-1, and TNFα) and anti-inflammatory (IL-10) cytokine levels.

[4] = test system: IL-1β, IL-6, MCP-1, TNFα, IL-10; assay: Choroid cytokine levels by ELISA in CNV rat model; type: in vivo, SD rats; conditions: n=8 choroids/group
Method: FIGS. 16A-16C depict that the choroids from the different groups were analyzed using ELISA (n=8 choroids/group).
as §1
The effect of D-NAC choroidal inflammation was assessed in a blinded manner, by measuring proinflammatory (IL-1β, IL-6, MCP-1-monocyte chemoattractant, and TNFα) and anti-inflammatory cytokine levels (IL-10).

[5] = test system: choroidal neovascularization (CNV); assay: CNV area in lipid (HpODE) injected CNV rat model, choroidal flat mounts; type: in vivo, SD rats; conditions: systemic, 20 mg/kg on NAC basis, assessed Day 10
Method: CNV rat model. Male SD rats of ˜300 grams each were chosen for this study. Lipid 3(S)-hydroperoxy-9Z,11E-octadecadienoic acid (HpODE) (Cayman Chemicals, Michigan, USA.) was dissolved in cold borate buffer at a concentration of 500 μg/33 μL. Two μL of lipid was injected sub-retinal on day 1 forming a bleb in retina. By day 3 the lipid bleb was gone and retinal degeneration began. At day 7 post-lipid injection, neovascularization from choroid (CNV) begins to form and inflammation occurs in retina and choroid as well as neovascularization in retina (RNV). This model causes damage to both choroid and retina and has characteristics of both dry and wed AMD forms (FIG. 12A).
Effect of N-acetal-Cysteine (NAC) on CNV model. A combination of D-NAC (dendrimer-NAC; 10 mg/kg on a NAC basis) and 6 mg of D-Cy5 were injected intravenously via penile vein on day 3 post lipid injection and animals were sacrificed on day 7 post injection. The animals injected with D-Cy5 and PBS served as controls. […] The confocal images choroids of D-NAC treated and control groups were analyzed for CNV area measurements using Image-J software. […]
D-NAC was administered on Day 3 (two days after lipid administration), and on day 5 and day 7 at 20 mg/kg on a NAC basis. […] CNV areas were assessed using morphometric analysis (yellow delineation) in Image-J software. […] Values were analyzed using Mann-Whitney t-test with n=12 and P<0.001

accumulation in kidney ([1]; 24 hours)	fluorescent signal in other organs (than kidney) ([1]; 24 hours)	level in any of the organs ([1]; 72 hours)	Structure (SMILES)	retinal clearance [2]	retinal clearance ([2]; iv)	proinflammatory cytokines in retina [3]	proinflammatory cytokines in choroid [4]	effect on CNV areas compared to PBS [5]
0.82±2.93 % of injected dose (ID)/organ	could not detect any fluorescent signals	not detectable	CCN1/C(=C/C=C/C=C/C2=[N+](CCCCCC(=O)O)c3ccc(S(=O)(=O)O)cc3C2(C)C)C(C)(C)c2cc(S(=O)(=O)[O-])ccc21 [free Cy5]	completely cleared	cleared	–	–	–
–	–	–	CC(=O)N[C@@H](CS)C(=O)O [free NAC, N-acetyl cysteine]	–	–	not effective	not effective	some decrease that was not significant
